pIC50: −log10 of the molar value.
Assays:
[1] = PNDA assay of •OH radicals from reaction with H2O2; settings: for Concentration of •OH radical: 30 µM compound with excess H2O2; for Generation of ·OH radicals (in words): equimolar test compound with excess H2O2
Procedure: A previously reported spectrometric assay using PNDA was used to quantify the amount of reactive oxygen species (ROS), viz. •OH radicals, produced by the reaction of metal(II) complexes with hydrogen peroxide in borate buffer at pH 7.5 [24–26]. The percentage of PNDA bleaching and the concentration of •OH produced were determined.

[2] = Solution stability by molar conductivity and visible absorptivity; assay type: physicochemical; settings: 24, 48 and 72 h; room temperature
Procedure: Series of 10 mM stock solutions were prepared by dissolving the compounds in their respective solvents: phen and 4,4′-bipy in 95% ethanol; Cu(NO3)2·3H2O, Zn(NO3)2·6H2O, (1) and (2) in double distilled water; (3) and (4) in DMSO. All the stock solutions were further diluted with double distilled water to obtain 10 mL of 30 µM, 1 mM and 5 mM for their respective studies, viz. 30 µM for ultraviolet spectral studies, 1 mM for conductivity measurement and 5 mM for visible spectral studies. For the water-DMSO solutions of both complexes (3) and (4), the 30 µM, 1 mM and 5 mM solutions have […], 10% DMSO and 50% DMSO respectively. The absorbance at λmax and conductance were of the aqueous solutions were measured at 0, 24, 48 and 72 h. The molar absorptivity and molar conductivity of the metal(II) complex solutions and their precursors were then calculated.

Pf3D7 = assay: Intracellular ROS level using DCFH-DA; assay type: cell-based, Plasmodium falciparum
Procedure: (§1) After incubation, packed cells were washed with phosphate buffer saline (PBS) solution. […] The data was expressed as fold change between amount of ROS produced by treated P. falciparum against untreated P. falciparum. Normalization was done with the percentage of parasite viability obtained at each condition. Hydrogen peroxide was used as positive control.

Pf5202 = assay: Intracellular ROS level using DCFH-DA; assay type: cell-based, Plasmodium falciparum
Procedure: as §1

[3] = test system: B+ blood red blood cells (RBC); assay: In vitro haemolytic assay; assay type: cell-based, human; settings: up to 25 µM; 72 h
Procedure: Fresh B+ blood was washed with RPMI1640 medium containing of 30 µg/mL gentamicin (Gibco) and centrifuged at 1000 xg for 10 min three times. The percentage of haemolysis was determined spectroscopically using 5% haematocrit containing test compound at increasing concentration and incubated for 72 h at 37 °C [19, 20]. Untreated blood acted as negative control while blood treated with sterile distilled water acted as positive control (for 100% haemolysis).

[4] = test system: Plasmodium falciparum 3D7 (Pf3D7); assay: In vitro anti-malarial activity using SYBR Green I nucleic acid dye; assay type: cell-based; settings: 72 h incubation; read-out: IC50 of Pf3D7
Procedure: (§2) The drug-sensitive strain of P. falciparum 3D7 (Pf3D7) was obtained from the Department of Science, Monash University, Malaysia and cultured as previously described. The artemisinin-resistant strain of P. falciparum IPC5202 (Pf5202) was obtained from BEI Resources and cultured as mentioned in the product sheet. Both strains were maintained in sealed flask at 37 °C in a humidified atmosphere of 5% O2, 5% CO2 and 90% N2. All buffer stock solutions for biological assays were autoclaved at 121 °C for 15 min.
(§3) Previously reported anti-malarial assay was used with slight modification using 1% parasitaemia (ring-stage) and 5% haematocrit treated with test compounds at increasing concentration and incubated for 72 h at 37 °C [21–23]. After the incubation, the assay was terminated by freeze/thaw cycle (− 80 °C overnight before thawing for 2 h) before the addition of lysis buffer containing SYBR Green I dye into each well and mixed thoroughly using the belly dancer for 30 min in the dark. Chloroquine diphosphate salt and artemisinin were used as standard drugs. The fluorescence signal was quantified at 485 nm excitation wavelength and 528 nm emission wavelength. IC50 values of each test compound was determined from a dose response curve by non-linear regression analysis.

[5] = test system: Plasmodium falciparum IPC5202 (Pf5202); assay: as above; assay type: cell-based; settings: 72 h incubation; read-out: IC50 of Pf5202
Procedure: as §2, §3

[6] = molecular target: Pf3D7 20S proteasome caspase-like (C-L) site (Plasmodium falciparum, UniProt Q8I0U7); assay: 20S proteasome inhibition assay using parasite lysate; assay type: biochemical; settings: Suc-LLE-AMC, 30 min
Pf3D7 20S proteasome caspase-like (C-L) site, sequence (Q8I6T3 entry or part of it): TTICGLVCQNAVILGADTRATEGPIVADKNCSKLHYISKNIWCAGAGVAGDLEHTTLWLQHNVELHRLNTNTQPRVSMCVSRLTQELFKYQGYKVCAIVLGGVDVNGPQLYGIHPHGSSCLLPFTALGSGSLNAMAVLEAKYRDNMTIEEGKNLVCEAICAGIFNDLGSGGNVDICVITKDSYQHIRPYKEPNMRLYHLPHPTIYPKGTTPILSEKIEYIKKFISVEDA
Pf3D7 20S proteasome caspase-like (C-L) site, sequence (Q8I0U7 entry or part of it): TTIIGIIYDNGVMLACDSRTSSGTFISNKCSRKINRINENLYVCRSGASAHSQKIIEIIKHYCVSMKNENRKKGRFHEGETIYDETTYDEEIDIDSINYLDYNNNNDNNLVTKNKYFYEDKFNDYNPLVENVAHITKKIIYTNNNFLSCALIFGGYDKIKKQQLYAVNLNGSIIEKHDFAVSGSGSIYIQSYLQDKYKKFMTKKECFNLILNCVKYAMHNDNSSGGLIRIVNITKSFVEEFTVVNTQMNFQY
Procedure: (§4) To harvest P. falciparum parasites, intraerythrocytic Pf3D7 and Pf5202 were collected in trophozoite and early schizont stages. Red blood cells were lysed in 0.15% (w/v) saponin lysis buffer for 10 min at 37 °C. After lysis, the parasite pellet was washed once with PBS buffer by centrifuging at 1600 rpm for 5 min. Saponin lysis buffer was added once again to remove all the red blood cells for 10 min at 37 °C, followed by washing with PBS twice and immediately used or kept at − 80 °C. To prepare parasite lysates for proteasome purification, parasite pellet was resuspended with 100 µl of pre-cooled Pierce™ RIPA buffer. A mild protein extraction method was used to prepare parasite extracts. The resuspended parasites were passed 20 times through a needle with a diameter of 0.4 mm in a syringe on ice to lyse the parasite. After 15 min centrifugation at 13,000 xg at 4 °C, the supernatant was removed. Protein concentration was determined by the Bradford assay. The activities of 3 proteolytic sites were determined by fluorescence assay using fluorogenic peptide substrates (Suc-LLVY-AMC for chymotrypsin-like, Boc-LRR-AMC for trypsin-like and Suc-LLE-AMC for caspase-like) Proteasome activities were determined by monitoring the substrate hydrolysis for 30 min at 37 °C with 340 nm excitation and 465 nm emission wavelength. Activity of each proteolytic site were calculated, and the IC50 values were determined from the non-linear regression analysis. VR23 proteasome inhibitor was used as positive control.

[7] = molecular target: Pf3D7 20S proteasome trypsin-like (T-L) site (Plasmodium falciparum, UniProt Q8I6T3); assay: as above; assay type: biochemical; settings: Boc-LRR-AMC, 30 min
Pf3D7 20S proteasome trypsin-like (T-L) site, sequence (Q8I6T3 entry or part of it): as the sequence (Q8I6T3 entry or part of it) above
Procedure: as §4

[8] = molecular target: Pf5202 20S proteasome trypsin-like (T-L) site (Plasmodium falciparum, UniProt Q8I6T3); assay: as above; assay type: biochemical; settings: parasite lysate; Boc-LRR-AMC; 30 min
Pf5202 20S proteasome trypsin-like (T-L) site, sequence (Q8I6T3 entry or part of it): as above
Procedure: as §4

[9] = molecular target: Pf3D7 20S proteasome chymotrypsin-like (CT-L) site (Plasmodium falciparum, UniProt Q8IJT1); assay: as above; assay type: biochemical; settings: Suc-LLVY-AMC, 30 min
Pf3D7 20S proteasome chymotrypsin-like (CT-L) site, sequence (Q8IJT1 entry or part of it): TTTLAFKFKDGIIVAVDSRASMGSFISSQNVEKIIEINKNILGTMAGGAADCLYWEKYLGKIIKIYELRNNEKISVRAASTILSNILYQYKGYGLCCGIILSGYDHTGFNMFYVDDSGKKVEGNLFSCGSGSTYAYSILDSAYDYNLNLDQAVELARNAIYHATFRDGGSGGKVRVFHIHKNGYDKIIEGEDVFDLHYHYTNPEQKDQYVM
Procedure: as §4

[10] = molecular target: Pf5202 20S proteasome caspase-like (C-L) site (Plasmodium falciparum, UniProt Q8I0U7); assay: as above; assay type: biochemical; settings: Suc-LLE-AMC, 30 min
Pf5202 20S proteasome caspase-like (C-L) site, sequence (Q8I0U7 entry or part of it): as the sequence (Q8I0U7 entry or part of it) above
Pf5202 20S proteasome caspase-like (C-L) site, sequence (Q8I6T3 entry or part of it, further chain): as the sequence (Q8I6T3 entry or part of it) above
Procedure: as §4

[11] = molecular target: Pf5202 20S proteasome chymotrypsin-like (CT-L) site (Plasmodium falciparum, UniProt Q8IJT1); assay: as above; assay type: biochemical; settings: Suc-LLVY-AMC, 30 min
Pf5202 20S proteasome chymotrypsin-like (CT-L) site, sequence (Q8IJT1 entry or part of it): as the sequence (Q8IJT1 entry or part of it) above
Procedure: as §4

Molecule: O.O.O=[N+]([O-])[O-].O=[N+]([O-])[O-].[Zn+2].c1cnc2c(c1)ccc1cccnc12.c1cnc2c(c1)ccc1cccnc12 [Complex 2, [Zn(phen)2](NO3)2·2H2O]
- Concentration of •OH radical ([1]; 2 h): 0.01 ± 0.08 µM
- Concentration of •OH radical ([1]; 4 h): 0.08 ± 0.03 µM
- Concentration of •OH radical ([1]; 24 h): 0.20 ± 0.16 µM
- Concentration of •OH radical ([1]; 48 h): 0.21 ± 0.05 µM
- Concentration of •OH radical ([1]; 72 h): 0.28 ± 0.08 µM
- Generation of ·OH radicals (in words) [1]: did not generate any ·OH radicals
- Stability of aqueous solution (molar conductivity; for (1) also visible molar absorptivity) [2]: remains practically unchanged
- fold change in ROS (Pf3D7; 24 h, 0.2 µM): 0.07 ± 0.08 fold
- fold change in ROS (Pf3D7; 24 h, 1.0 µM): 0.39 ± 0.19 fold
- fold change in ROS (Pf3D7; 24 h, 5.0 µM): 0.45 ± 0.10 fold
- fold change in ROS (Pf3D7; 24 h, 25.0 µM): 2.61 ± 0.12 fold
- fold change in ROS (Pf3D7; 48 h, 0.2 µM): 1.9 ± 0.38 fold
- fold change in ROS (Pf3D7; 48 h, 1.0 µM): 2.13 ± 0.21 fold
- fold change in ROS (Pf3D7; 48 h, 5.0 µM): 2.95 ± 0.18 fold
- fold change in ROS (Pf3D7; 48 h, 25.0 µM): 2.48 ± 0.26 fold
- fold change in ROS (Pf3D7; 72 h, 25.0 µM): 0.70 ± 0.05 fold
- fold change in ROS (Pf5202; 24 h, 0.2 µM): 1.07 ± 0.05 fold
- fold change in ROS (Pf5202; 24 h, 1.0 µM): 1.10 ± 0.09 fold
- fold change in ROS (Pf5202; 24 h, 5.0 µM): 1.00 ± 0.02 fold
- fold change in ROS (Pf5202; 24 h, 25.0 µM): 1.04 ± 0.06 fold
- fold change in ROS (Pf5202; 72 h, 0.2 µM): 0.00 ± 0.03 fold
- fold change in ROS (Pf5202; 72 h, 1.0 µM): 0.34 ± 0.04 fold
- fold change in ROS (Pf5202; 72 h, 5.0 µM): 0.16 ± 0.04 fold
- Haemolysis on B+ blood (in words) [3]: no haemolysis

Molecule: [Zn(phen)(NO3)-4,4′-bipy-Zn(phen)(NO3)](NO3)2·2H2O [Complex 4]
- pIC50 [4]: 5.41
- pIC50 [5]: < 4.00
- Generation of ·OH radicals (in words) [1]: did not generate any ·OH radicals
- pIC50 [6]: < 4.60
- pIC50 [7]: < 4.60
- pIC50 [8]: < 4.60
- pIC50 [9]: < 4.60
- pIC50 [10]: < 4.60
- pIC50 [11]: < 4.60
- fold change in ROS (Pf3D7; 24 h, 25.0 µM): 0.31 ± 0.31 fold
- fold change in ROS (Pf3D7; 48 h, 0.2 µM): 0.52 ± 0.26 fold
- fold change in ROS (Pf3D7; 48 h, 1.0 µM): 0.77 ± 0.58 fold
- fold change in ROS (Pf3D7; 48 h, 5.0 µM): 0.85 ± 0.40 fold
- fold change in ROS (Pf3D7; 48 h, 25.0 µM): 0.42 ± 0.19 fold
- fold change in ROS (Pf3D7; 72 h, 0.2 µM): 1.52 ± 0.07 fold
- fold change in ROS (Pf3D7; 72 h, 1.0 µM): 1.52 ± 0.14 fold
- fold change in ROS (Pf3D7; 72 h, 5.0 µM): 1.85 ± 0.27 fold
- fold change in ROS (Pf3D7; 72 h, 25.0 µM): 1.19 ± 0.57 fold
- fold change in ROS (Pf5202; 24 h, 1.0 µM): 0.44 ± 0.25 fold
- fold change in ROS (Pf5202; 48 h, 5.0 µM): 0.43 ± 0.09 fold
- fold change in ROS (Pf5202; 48 h, 25.0 µM): 0.39 ± 0.36 fold
- fold change in ROS (Pf5202; 72 h, 1.0 µM): 0.45 ± 0.32 fold
- fold change in ROS (Pf5202; 72 h, 5.0 µM): 0.33 ± 0.01 fold
- fold change in ROS (Pf5202; 72 h, 25.0 µM): 0.13 ± 0.05 fold
- Haemolysis on B+ blood (in words) [3]: no haemolysis
